Read-outs that look alike come from different tables or passages of the source.
What was measured:
[1] = cited from earlier work
[2] = for Concentration, Aqueous Phase / Concentration, Oil Phase: 600 mg drug in 20 g soy bean oil + 20 g DI water, stirred at room temperature 24 hours, HPLC; for pH of aqueous phase: aqueous phase at end of partition study; for O/W partition ratio: soy bean oil / DI water, room temperature 24 hours
Description: In order to determine percentage of clopidogrel partitioning in oil and aqueous phases, a partition study was conducted using clopidogrel biosulfate and clopidogrel free base. 600 mg of drug was weighed out and added to a beak containing equal weight of soy bean oil and DI water (20 g each). Stir the mixture in room temperature for 24 hours. At the end of study, samples from both phases were withdrawn and tested by HPLC as described in Example 14. The pH of the aqueous phase were measured.

[3] = test system: platelet aggregation; conditions: cited from earlier work
[4] = 5 min
Source text: As used herein the disease or condition refers to any disease or condition which may be treated using clopidogrel containing medicine for the prevention of atherothrombotic events such as myocardial infarction, stroke, peripheral arterial disease, acute coronary syndrome, and cardio-vascular death.

[5] = cited from earlier work; remark: listed apart in the source

For `COC(=O)[C@H](c1ccccc1Cl)N1CCc2sccc2C1` [Clopidogrel bisulfate], the “stability under increased moisture and temperature” value ([1]; listed as clopidogrel biosulfate) is given as “relatively unstable”, the “Concentration, Aqueous Phase” value [2] is given as 15000 µg/mL and the “Concentration, Oil Phase” value [2] is given as 17000 µg/mL. For the same compound, the “pH of aqueous phase” value [2] was 2, the “clopidogrel staying in the aqueous phase” value ([2]; soy bean oil / DI water partition study) was “about 50%” and the O/W partition ratio [2] was 1.1.

In the case of `COC(=O)[C@H](c1ccccc1Cl)N1CCc2sccc2C1` [Clopidogrel free base, methyl (+)-(S)-α-(o-chlorophenyl)-6,7-dihydrothieno[3,2-c]pyridine-5(4H)-acetate], the “solubility in ethyl ether” value ([1]; ethyl ether) is given as “practically insoluble”, the “stability under increased moisture and temperature” value [1] is given as “unstable” and the solubility in methanol ([1]; methanol) is given as “dissolves freely”. The “solubility in methylene chloride” value ([1]; methylene chloride) was “dissolves sparingly”, the “solubility at pH 1” value ([1]; pH 1) was “freely soluble” and the “solubility in water at neutral pH” value ([1]; water, neutral pH) was “practically insoluble”. The “biological / pharmacological activity” value [3] was “biologically active”, the “Concentration, Aqueous Phase” value [2] was 6 µg/mL and the “Concentration, Oil Phase” value [2] was 29000 µg/mL. For the same compound, the “pH of aqueous phase” value [2] was 7, the “amount of clopidogrel in the aqueous phase” value ([2]; soy bean oil / DI water partition study, result in words) was “negligible” and the O/W partition ratio [2] was 4833. The “degradation in diluted NaOH solution” value [4] was “degraded completely in 5 minutes”.

For `O=C(O)[C@H](c1ccccc1Cl)N1CCc2sccc2C1` [Impurity A], the “biological / pharmacological activity” value [3] is listed as “no pharmacological activity”.

In the case of `COC(=O)[C@@H](c1ccccc1Cl)N1CCc2sccc2C1` [Impurity C, methyl ( )-(R)-(o-chlorophenyl)-6,7-dihydrothieno[3,2-c]pyridine-5(4H)-acetate], the anti-aggregation activity [3] is listed as “does not exhibit any anti-aggregation activity”, the convulsions ([5]; high doses of animals) is listed as “can evoke convulsions” and the tolerability ([5]; in vivo) is listed as “poorly tolerated”.

Source: patent US9480680B2, “Stable pharmaceutical composition of clopidogrel free base for oral and parenteral delivery” (priority 2013, dated 2016)
